Reference: patent US9505798B2, “Steroid compounds as RORyt modulators and uses thereof” (New York University, priority 2010, dated 2016)
Where two headings read alike, the source gives them in different places.

Experiments:
human RORγ LBD = molecular target: T1, human RORγ LBD (Homo sapiens, UniProt P51449); assay: In vitro binding and competition assay (fluorescence polarization, fluorescein-labeled 25-hydroxycholesterol)
T1 construct: Human RORγ LBD (residues 262-518); 6×His-tag (N); thrombin cleavage site (N); made in house; host or cells: E. coli BL21-CodonPlus(DE3)-RIL, pET46 Ek/Lic vector
Method: All DNA constructs were generated by PCR-based methodology and confirmed by sequencing. […] IL-17a, IFN-γ, IL-4, and CCR6 protein expression was examined by intracellular or surface staining according to the manufacturer's protocol.
The cells were induced with 0.5 mM IPTG at 16° C. overnight, then collected and lysed in 20 mM Tris-HCl (pH 8.0), 500 mM NaCl, 20 mM imidazole and 10% glycerol. Supernatant was loaded onto a HisTrap™ FF crude 5 mL column on an AKTAxpress HPLC system. The protein was eluted with a 20-500 mM imidazole gradient, dialyzed overnight against 20 mM Tris-HCl (pH 8.0) and 200 mM NaCl, and further purified on a Q Sepharose™ Fast Flow anion exchange column (Amersham Biosciences). The flow-through fraction containing pure RORγ LBD protein was collected, and DTT was added to 10 mM immediately after calculating protein concentration by OD280. For the binding assay, 2 nM Fluorescein-labeled 25-hydroxycholesterol was incubated with purified RORγ LBD protein for 2 hrs at room temperature. Protein concentration was varied by serial dilution in binding buffer (20 mM Tris-HCl (pH 8.0), 200 mM NaCl, 10 mM DTT). Fluorescent polarization signals were measured with a Beacon 2000 (PanVera).

human RORγt = molecular target: T2, human RORγt (Homo sapiens, UniProt P51449); assay: IL-17a induction in human CD4+ T cells transduced with RORαd, RORβ or RORγt; format: cell-based
T2 construct: expressed in transfected cells; host or cells: human CD4+ T cells (cord blood or adult blood), lentiviral HDV-IRES-GFP/HSA vectors
T2 sequence (P51449 1-497 isoform P51449-2): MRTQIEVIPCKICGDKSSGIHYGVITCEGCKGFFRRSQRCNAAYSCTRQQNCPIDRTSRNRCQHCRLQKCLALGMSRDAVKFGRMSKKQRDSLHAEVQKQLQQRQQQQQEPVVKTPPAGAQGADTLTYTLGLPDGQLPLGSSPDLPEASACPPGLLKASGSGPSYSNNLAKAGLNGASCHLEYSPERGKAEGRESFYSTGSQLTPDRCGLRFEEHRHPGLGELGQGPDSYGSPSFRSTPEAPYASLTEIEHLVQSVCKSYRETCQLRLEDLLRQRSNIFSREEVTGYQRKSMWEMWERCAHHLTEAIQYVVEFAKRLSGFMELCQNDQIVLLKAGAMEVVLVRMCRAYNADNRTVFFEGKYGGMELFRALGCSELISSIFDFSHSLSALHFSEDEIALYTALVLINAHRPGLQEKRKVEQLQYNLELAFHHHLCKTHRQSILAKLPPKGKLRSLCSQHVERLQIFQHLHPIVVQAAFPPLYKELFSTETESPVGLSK
Method: GFP expressing cells were gated for analysis. DMSO, Dig(dhd) (40 μM) or Dig(sal) (10 μM) was added 6-8 h after viral transduction. c, Flow cytometry of the production of IL-17a and IFN-γ by human naive cord blood T cells cultured for six days in the presence of IL-2, IL-23, and IL-1β, with various concentrations of TGF-β. DMSO, Dig(dhd), or Dig(sal) at indicated concentrations (μM) was added 16 h after cytokine addition.
Blood samples were obtained from the New York Blood Center. Mononuclear cells were prepared from buffy coats from healthy adult donors or from cord blood, using FicollPAQUE gradients. CD4^+ T cells were magnetically selected (autoMACS, Miltenyi). Adult memory CD4^+ T cell subsets were further purified as CD3^+CD4^+CD25^− CD45RO^+CCR6^+CD161^+ by cell sorting on a FACSAria (BD). Naive CD4^+ T cells were isolated from cord blood as CD3^+CD4^+CD45RA^+HLA-DR^−CD25^−DAPI^−. Memory cells were activated with anti-CD3/CD28 coated beads (1 bead/cell) in T cell media (see above) supplemented with 100 U/mL IL-2 (Peprotech), 10 ng/mL IL-1b and 10 ng/mL IL-23 (eBioscience). Naive cells were activated with anti-CD3/CD28 beads and cultured with the same cytokines, and TGF-b (0, 0.1, 1, or, 10 ng/mL) (Peprotech), in XVIVO-20 (Lonza) media. […] Naive CD4^+ T cells, cultured in XVIVO-20 media supplemented 100 U/mL IL-2 (Peprotech), were transduced with RORad-IRES-GFP or RORγt-IRES-GFP on day 1 and analyzed on day 6. GFP expressing cells were gated for analysis. DMSO or compounds were added 6-8 hours after the viral transduction.
Blood samples were obtained from the New York Blood Center. Mononuclear cells were prepared from buffy coats from healthy adult donors or from cord blood, using FicollPAQUE gradients. CD4^+ T cells were magnetically selected (autoMACS, Miltenyi). Adult memory CD4+ T cell subsets were further purified as CD3^+CD4^+CD25^−CD45RO^+CCR6^+CD161^+ by cell sorting on a FACSAria (BD). […] Naive CD4+ T cells, cultured in XVIVO-20 media supplemented with 100 U/mL IL-2 (Peprotech), were transduced with RORαd-IRES-GFP or RORγt-IRES-GFP on day 1 and analyzed on day 6. […]

| SMILES | IC50 (human RORγ LBD; in vitro competition assay, human RORγ LBD, read-out: IC50, displacement of fluorescein-labeled 25-hydroxycholesterol) [µM] | RORαd-, β- or γt-mediated induction of IL-17a (human RORγt; human T cells expressing murine Na+/K+-ATPase) | IC50 (human RORγ LBD) [µM] | RORγt-mediated IL-17a induction (versus RORαd) (human RORγt; 40 μM, FIG. 3b) |
| --- | --- | --- | --- | --- |
| C[C@H]1O[C@@H](O[C@H]2[C@@H](O)C[C@H](O[C@H]3[C@@H](O)C[C@H](O[C@H]4CC[C@@]5(C)[C@H](CC[C@@H]6[C@@H]5C[C@@H](O)[C@]5(C)[C@@H](C7=CC(=O)OC7)CC[C@]65O)C4)O[C@@H]3C)O[C@@H]2C)C[C@H](O)[C@@H]1O [Digoxin] | 4.1 | inhibited only RORγt-mediated induction of IL-17a |  |  |
| CC1O[C@@H](OC2C(C)O[C@H](OC3C(C)O[C@@H](O[C@H]4CC[C@@]5(C)[C@H](CC[C@@H]6[C@@H]5C[C@@H](O)[C@]5(C)[C@@H](C(CO)CCO)CC[C@]65O)C4)C[C@H]3O)C[C@H]2O)C[C@@H](O)C1O (stereo partly shown) [Compound 13, 20,22-Dihydrodigoxin-21,23-diol] |  |  | 12 | selectively suppressed |
